Data on eleven compounds can be found in ChEMBL document CHEMBL4842347, “Structure-activity relationship and biochemical evaluation of novel fibroblast activation protein and prolyl endopeptidase inhibitors with α-ketoamide warheads” (Eur J Med Chem, 2021).

Active and inactive are the calls of the source. No cut-off for these calls is given here.

The nature of data set [1]: Metabolic stability in human plasma incubated for 2 hrs by LC/MS-MS analysis. It counts as ADME, cell-free.
The nature of data set [2]: Drug degradation in human plasma measured up to 1 min incubated for 2 hrs by LC/MS-MS analysis. The data set is classed as ADME, cell-free.
Data set [3] can be described thus: Drug degradation in mouse liver microsomes measured up to 1 min incubated for 2 hrs by LC/MS-MS analysis. The data set is classed as ADME, Microsome. A general note: Liver microsomes are vesicles of endoplasmic reticulum, rich in cytochrome P450 enzymes.
For a further data set, the system named is CCRF-CEM. The experiment in a line: Cytotoxicity against human CCRF-CEM cells assessed as reduction in cell viability incubated for 72 hrs measured by […]-based colorimetric assay. It counts as functional.
A further data set has as its system HepG2. In words: Cytotoxicity against human HepG2 cells assessed as reduction in cell viability incubated for 72 hrs measured by […]-based colorimetric assay. The data set is classed as functional.
Another data set concerns HeLa. The experiment in a line: Cytotoxicity against human HeLa cells assessed as reduction in cell viability incubated for 72 hrs measured by […]-based colorimetric assay. The data set is classed as functional.
The next data set relates to HL-60. The experiment in a line: Cytotoxicity against human HL-60 cells assessed as reduction in cell viability incubated for 72 hrs measured by […]-based colorimetric assay. It counts as functional.
The target in a further data set is Dipeptidyl peptidase 4 (Homo sapiens, UniProt P27487). The experiment in a line: Inhibition of SF-tagged DPP4 (unknown origin) expressed in Drosophila S2 cells using fluorogenic substrate by spectrometric analysis. It counts as cell-based.
Chain of Dipeptidyl peptidase 4 (P27487 whole entry): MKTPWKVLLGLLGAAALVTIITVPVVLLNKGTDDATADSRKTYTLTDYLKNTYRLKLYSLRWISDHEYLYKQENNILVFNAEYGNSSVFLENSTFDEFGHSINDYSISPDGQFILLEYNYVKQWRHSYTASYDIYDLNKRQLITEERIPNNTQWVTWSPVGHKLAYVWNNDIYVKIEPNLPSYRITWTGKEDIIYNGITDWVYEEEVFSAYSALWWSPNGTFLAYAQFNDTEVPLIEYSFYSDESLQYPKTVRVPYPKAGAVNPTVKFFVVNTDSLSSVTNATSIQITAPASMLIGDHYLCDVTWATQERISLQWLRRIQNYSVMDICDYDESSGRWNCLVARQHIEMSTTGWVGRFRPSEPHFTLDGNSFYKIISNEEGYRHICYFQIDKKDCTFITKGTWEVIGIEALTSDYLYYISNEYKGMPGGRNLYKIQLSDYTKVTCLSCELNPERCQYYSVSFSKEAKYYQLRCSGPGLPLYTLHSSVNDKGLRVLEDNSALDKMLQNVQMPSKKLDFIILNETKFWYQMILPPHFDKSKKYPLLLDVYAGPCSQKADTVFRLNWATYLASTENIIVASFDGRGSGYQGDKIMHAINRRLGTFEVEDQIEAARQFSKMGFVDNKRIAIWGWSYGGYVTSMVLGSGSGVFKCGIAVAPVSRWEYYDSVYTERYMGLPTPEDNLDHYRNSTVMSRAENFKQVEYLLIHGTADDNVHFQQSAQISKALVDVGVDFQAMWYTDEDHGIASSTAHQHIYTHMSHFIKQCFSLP
Data set [4] in a line: Inhibition of PREP (unknown origin) using fluorogenic substrate by spectrometric assay. Further details: species or system Homo sapiens.

As to `COC(=O)[C@H](CCC(=O)OCc1ccccc1)NC(=O)CNC(=O)C(=O)[C@@H]1CCCN1C(=O)CNC(=O)c1ccnc2ccccc12`, the values for the Stabilty result in data set [1], in [2] and in data set [3] were “Stable”, “Unstable” and “Unstable”, respectively. For the same compound, the result in the data set on CCRF-CEM, with HepG2, in the data set with HeLa and with HL-60 was inactive.
As for `O=C(NCc1ccccc1)C(=O)[C@@H]1CCCN1C(=O)CNC(=O)c1ccnc2ccccc12`, the Stabilty result in data set [1] is “Stable”; in [3] it was “Unstable”. Besides, the result in the data set on CCRF-CEM, in the data set with HepG2, in the data set with HeLa and in the data set on HL-60 was inactive.
By IC50 is commonly meant the midpoint of a concentration-inhibition curve. As for `O=C(NCC(=O)N1CCOCC1)C(=O)[C@@H]1CCCN1C(=O)CNC(=O)c1ccnc2ccccc12`, the IC50 is more than 4 µM at Dipeptidyl peptidase 4 and 0.49 nM in data set [4]. The result in the data set on CCRF-CEM, in the data set on HepG2, in the data set on HeLa and with HL-60 was inactive.
`O=C(NCc1ccc(F)cc1)C(=O)[C@@H]1CCCN1C(=O)CNC(=O)c1ccnc2ccccc12`: the IC50 was more than 3 µM at Dipeptidyl peptidase 4 and 0.26 nM in data set [4]. In addition, the outcome with CCRF-CEM, in the data set with HepG2, in the data set with HeLa and with HL-60 was inactive.
Consider `COc1ccc(CNC(=O)C(=O)[C@@H]2CCCN2C(=O)CNC(=O)c2ccnc3ccccc23)cc1OC`, for which the IC50 in data set [4] is 0.24 nM. Moreover, the Stabilty result in data set [1] was “Stable”. For the same compound, the result in the data set with CCRF-CEM, in the data set on HepG2, in the data set on HeLa and with HL-60 was inactive.
Consider `CC(C)(C)NC(=O)CNC(=O)C(=O)[C@@H]1CCCN1C(=O)CNC(=O)c1ccnc2ccccc12`, for which the 50% inhibitory concentration (IC50) at Dipeptidyl peptidase 4 was more than 4 µM; in [4] it was 0.73 nM. Besides, the outcome in the data set with CCRF-CEM, in the data set with HepG2, with HeLa and in the data set with HL-60 was inactive.
With `CC(C)(C)OC(=O)CNC(=O)C(=O)[C@@H]1CCCN1C(=O)CNC(=O)c1ccnc2ccccc12`, the IC50 is more than 3 µM against Dipeptidyl peptidase 4 and 0.53 nM in data set [4]. The outcome in the data set with CCRF-CEM, in the data set on HepG2, in the data set with HeLa and in the data set on HL-60 was inactive.
In the case of `Cc1ccc(CNC(=O)C(=O)[C@@H]2CCCN2C(=O)CNC(=O)c2ccnc3ccccc23)c(C)c1`, the IC50 against Dipeptidyl peptidase 4 is more than 4 µM; in data set [4], 0.66 nM. The outcome in the data set with CCRF-CEM, in the data set with HepG2, with HeLa and in the data set with HL-60 was inactive.
For `COC(=O)[C@H](Cc1ccccc1)NC(=O)CNC(=O)C(=O)[C@@H]1CCCN1C(=O)CNC(=O)c1ccnc2ccccc12`, the IC50 on Dipeptidyl peptidase 4 is more than 4 µM; in [4] it was 0.36 nM. Moreover, the Stabilty result in [1] is “Stable”; in data set [2], “Unstable”; in data set [3] it was “Unstable”. The outcome with CCRF-CEM, in the data set with HepG2, with HeLa and in the data set on HL-60 was inactive.
As to `COc1ccc(CCNC(=O)C(=O)[C@@H]2CCCN2C(=O)CNC(=O)c2ccnc3ccccc23)cc1OC`, 0.43 nM corresponded to half-maximal inhibition in data set [4] (IC50). Also, the Stabilty entry in data set [1] is “Stable”; in [3] it was “Unstable”. For the same compound, the outcome in the data set on CCRF-CEM, in the data set on HepG2, in the data set with HeLa and with HL-60 was inactive.
With `COC(=O)[C@H](CCCCNC(=O)OCc1ccccc1)NC(=O)CNC(=O)C(=O)[C@@H]1CCCN1C(=O)CNC(=O)c1ccnc2ccccc12`, the 50% inhibitory concentration (IC50) is more than 4 µM against Dipeptidyl peptidase 4 and 0.29 nM in data set [4]. Besides, the result in the data set on CCRF-CEM, in the data set with HepG2, with HeLa and with HL-60 was inactive.
